Like-named read-outs stand apart in the source and are kept apart here.
Columns and labels:
[1] = target: T1, human M2 receptor (Homo sapiens, UniProt P08172); assay type: cell-based; details: α >1 = positive cooperativity
T1 sequence (P08172 1-466): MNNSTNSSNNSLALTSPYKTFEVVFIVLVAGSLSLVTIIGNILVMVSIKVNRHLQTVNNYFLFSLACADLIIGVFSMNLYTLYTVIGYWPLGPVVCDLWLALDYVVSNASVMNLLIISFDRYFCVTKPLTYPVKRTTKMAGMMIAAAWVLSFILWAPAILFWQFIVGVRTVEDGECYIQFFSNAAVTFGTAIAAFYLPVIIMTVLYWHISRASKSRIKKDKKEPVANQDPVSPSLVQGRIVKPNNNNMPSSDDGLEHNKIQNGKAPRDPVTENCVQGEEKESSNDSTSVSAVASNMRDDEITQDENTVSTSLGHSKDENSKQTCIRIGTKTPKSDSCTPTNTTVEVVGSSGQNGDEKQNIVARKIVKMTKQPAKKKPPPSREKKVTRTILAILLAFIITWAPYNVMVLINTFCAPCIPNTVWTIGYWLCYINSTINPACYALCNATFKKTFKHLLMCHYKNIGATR
Procedure: B-1.2. Determination of Positive Cooperativity (α Factor)
In contrast to the EC50 determination of the test substances (see B-1.1), however, this is not done using one acetylcholine concentration; instead, every concentration of the test substance is combined with an acetylcholine 8-point dose-response curve. […] The shift in the acetylcholine dose-response curve in the presence of increasing concentrations of the test substance is analysed and quantified by means of GraphPad PRISM (Allosteric EC50 shift). […] Positive cooperativity is the hallmark of a positive allosteric modulator. […] The greater the magnitude of the α value, the greater the extent of cooperativity between orthosteric and allosteric.

[2] = target: T1, human M2 receptor; details: for Emax: read-out: Efficiency, boosting of the acetylcholine effect at EC20 acetylcholine concentration
[3] = shift in the acetylcholine dose-response curve (Allosteric EC50 shift, GraphPad PRISM)
[4] = Receptor activity EC50, M2-GIRK1/4 activation test, acetylcholine at EC20, allosteric potency, in some cases mean values from two or more determinations
[5] = Receptor activity EC50, allosteric potency at EC20 acetylcholine, M2-GIRK1/4 reporter cells, in some cases mean of two or more determinations

In the case of `CC[C@@H](NC(=O)c1cn(-c2ccc(F)cc2F)c2nc(N3CCC4(C3)CC4(F)F)ccc2c1=O)C(F)(F)F` (mixture of isomers) [Example 29, 7-(1,1-Difluoro-5-azaspiro[2.4]hept-5-yl)-1-(2,4-difluorophenyl)-4-oxo-N-[(2R)-1,1,1-trifluorobutan-2-yl]-1,4-dihydro-1,8-naphthyridine-3-carboxamide (diastereomer mixture)], the “Cooperativity (alpha factor)” value [1, 3] is reported as 4 and the EC50 [2, 4] is reported as 112 nM.
`CC[C@@H](NC(=O)c1cn(-c2ccc(F)cc2F)c2nc(N3CCC(C)(F)C3)ccc2c1=O)C(F)(F)F` (mixture of isomers) [Example 30, 1-(2,4-Difluorophenyl)-7-(3-fluoro-3-methylpyrrolidin-1-yl)-4-oxo-N-[(2R)-1,1,1-trifluorobutan-2-yl]-1,4-dihydro-1,8-naphthyridine-3-carboxamide (diastereomer mixture)] was tested, and the “Cooperativity (alpha factor)” value [1, 3] was 11 and the EC50 [2, 4] was 95 nM.
`CCC(NC(=O)c1cn(-c2c(F)cc(F)cc2F)c2nc(N3C[C@@H](O)[C@H](O)C3)ccc2c1=O)C(F)(F)C(F)(F)F` (single isomer, unassigned) [Example 524] was tested, and the “Cooperativity (alpha factor)” value ([1]; shift of acetylcholine dose-response curve (Allosteric EC50 shift)) was 60.
In the case of `CN(C)c1ccc2c(=O)c(C(=O)NCc3c(Cl)cccc3C(F)(F)F)cn(-c3ccc(F)cc3F)c2n1` [Example 58, N-[2-Chloro-6-(trifluoromethyl)benzyl]-1-(2,4-difluorophenyl)-7-(dimethylamino)-4-oxo-1,4-dihydro-l,8-naphthyridine-3-carboxamide], the “Cooperativity (alpha factor)” value [1, 3] is reported as 9.
For `CC[C@H](NC(=O)c1cn(-c2c(F)cc(F)cc2F)c2nc(N3CCN(CCO)C3=O)ccc2c1=O)C(F)(F)F` [Example 362, 7-[3-(2-Hydroxyethyl)-2-oxoimidazolidin-1-yl]-4-oxo-N-[(2S)-1,1,1-trifluorobutan-2-yl]-1-(2,4,6-trifluorophenyl)-1,4-dihydro-1,8-naphthyridine-3-carboxamide], the “Cooperativity (alpha factor)” value [1, 3] was 27.
In the case of `CC1(NC(=O)c2cn(-c3c(F)cc(F)cc3F)c3nc(N4CCNC4=O)ccc3c2=O)CC(F)(F)C1` [Example 656, N-(3,3-Difluoro-1-methylcyclobutyl)-4-oxo-7-(2-oxoimidazolidin-1-yl)-1-(2,4,6-trifluorophenyl)-1,4-dihydro-1,8-naphthyridine-3-carboxamide], the EC50 [2, 5] is reported as 100 nM and the Emax ([2]; M2-GIRK1/4 reporter cells) is reported as 91.5%.
In the case of `CC[C@@H](NC(=O)c1cn(-c2ccc(F)cc2F)c2nc(N3C(=O)C(C)(C)C(O)C3C)ccc2c1=O)C(F)(F)F` (stereo partly drawn) [Example 657, 1-(2,4-Difluorophenyl)-7-[4-hydroxy-3,3,5-trimethyl-2-oxopyrrolidin-1-yl]-4-oxo-N-[(2R)-1,1,1-trifluorobutan-2-yl]-1,4-dihydro-1,8-naphthyridine-3-carboxamide], the EC50 [2, 5] is reported as 100 nM and the Emax ([2]; M2-GIRK1/4 reporter cells) is reported as 85.3%.
Molecule `CC(C)C[C@@H](NC(=O)c1cn(-c2c(F)cc(F)cc2F)c2nc(N3C[C@@H](O)CC3=O)ccc2c1=O)C(F)(F)F` [Example 658, 7-[(4S)-4-Hydroxy-2-oxopyrrolidin-1-yl]-4-oxo-N-[(2R)-1,1,1-trifluoro-4-methylpentan-2-yl]-1-(2,4,6-trifluorophenyl)-1,4-dihydro-1,8-naphthyridine-3-carboxamide] has an EC50 [2, 5] of 6 nM and an Emax ([2]; M2-GIRK1/4 reporter cells) of 100%.
`O=C(N[C@@H](C1CC1)C(F)(F)F)c1cn(-c2c(F)cc(F)cc2F)c2nc(N3CCC[C@H]3CO)ccc2c1=O` [Example 660, N-[(1S)-1-Cyclopropyl-2,2,2-trifluoroethyl]-7-[(2S)-2-(hydroxymethyl)pyrrolidin-1-yl]-4-oxo-1-(2,4,6-trifluorophenyl)-1,4-dihydro-1,8-naphthyridine-3-carboxamide] showed an EC50 [2, 5] of 102 nM and an Emax ([2]; M2-GIRK1/4 reporter cells) of 84.5%.
`O=C(N[C@@H](C1CC1)C(F)(F)F)c1cn(-c2c(F)cc(F)cc2F)c2nc(N3CCC[C@@H]3CO)ccc2c1=O` [Example 661, N-[(1 S)-1-Cyclopropyl-2,2,2-trifluoroethyl]-7-[(2R)-2-(hydroxymethyl)pyrrolidin-1-yl]-4-oxo-1-(2,4,6-trifluorophenyl)-1,4-dihydro-1,8-naphthyridine-3-carboxamide] gave an EC50 [2, 5] of 48 nM and an Emax ([2]; M2-GIRK1/4 reporter cells) of 95.5%.
For `O=C(N[C@@H](C1CC1)C(F)(F)F)c1cn(-c2c(F)cc(F)cc2F)c2nc(N3CC(O)C3)ccc2c1=O` [Example 662, N-[(1S)-1-Cyclopropyl-2,2,2-trifluoroethyl]-7-(3-hydroxyazetidin-1-yl)-4-oxo-1-(2,4,6-trifluorophenyl)-1,4-dihydro-1,8-naphthyridine-3-carboxamide], the EC50 [2, 5] was 38 nM and the Emax ([2]; M2-GIRK1/4 reporter cells) was 100%.
`O=C(N[C@@H](C1CC1)C(F)(F)F)c1cn(-c2c(F)cc(F)cc2F)c2nc(N3CCC(O)(CO)CC3)ccc2c1=O` [Example 663, N-[(1 S)-1-Cyclopropyl-2,2,2-trifluoroethyl]-7-[4-hydroxy-4-(hydroxymethyl)piperidin-1-yl]-4-oxo-1-(2,4,6-trifluorophenyl)-1,4-dihydro-1,8-naphthyridine-3-carboxamide] gave an EC50 [2, 5] of 30 nM and an Emax ([2]; M2-GIRK1/4 reporter cells) of 90.5%.
`O=C(N[C@@H](C1CC1)C(F)(F)F)c1cn(-c2c(F)cc(F)cc2F)c2nc(N(CCO)CCO)ccc2c1=O` [Example 664, 7-[Bis(2-hydroxyethyl)amino]-N-[(1S)-1-cyclopropyl-2,2,2-trifluoroethyl]-4-oxo-1-(2,4,6-trifluorophenyl)-1,4-dihydro-1,8-naphthyridine-3-carboxamide] was tested, and the EC50 [2, 5] was 100 nM and the Emax ([2]; M2-GIRK1/4 reporter cells) was 98%.
In the case of `CC1(O)CCCN(c2ccc3c(=O)c(C(=O)N[C@@H](C4CC4)C(F)(F)F)cn(-c4c(F)cc(F)cc4F)c3n2)C1` (some centres unmarked) [Example 665, N-[(1 S)-1-Cyclopropyl-2,2,2-trifluoroethyl]-7-[3-hydroxy-3-methylpiperidin-1-yl]-4-oxo-1-(2,4,6-trifluorophenyl)-1,4-dihydro-1,8-naphthyridine-3-carboxamide], the EC50 [2, 5] is reported as 73 nM and the Emax ([2]; M2-GIRK1/4 reporter cells) is reported as 92.5%.
`O=C(N[C@@H](C1CC1)C(F)(F)F)c1cn(-c2c(F)cc(F)cc2F)c2nc(N3C[C@@H](C(=O)O)OC3=O)ccc2c1=O` [Example 667, (5S)-3-[6-{[(1S)-1-Cyclopropyl-2,2,2-trifluoroethyl]carbamoyl}-5-oxo-8-(2,4,6-trifluorophenyl)-5,8-dihydro-1,8-naphthyridin-2-yl]-2-oxo-1,3-oxazolidine-5-carboxylic acid] showed an EC50 [2, 5] of 3850 nM and an Emax ([2]; M2-GIRK1/4 reporter cells) of 100%.
Molecule `NC(=O)[C@@H]1CN(c2ccc3c(=O)c(C(=O)N[C@@H](C4CC4)C(F)(F)F)cn(-c4c(F)cc(F)cc4F)c3n2)C(=O)O1` [Example 668, 7-[(5S)-5-Carbamoyl-2-oxo-1,3-oxazolidin-3-yl]-N-[(1 S)-1-cyclopropyl-2,2,2-trifluoroethyl]-4-oxo-1-(2,4,6-trifluorophenyl)-1,4-dihydro-1,8-naphthyridine-3-carboxamide] has an EC50 [2, 5] of 89 nM and an Emax ([2]; M2-GIRK1/4 reporter cells) of 100%.
With `COC(=O)[C@H]1CN(c2ccc3c(=O)c(C(=O)N[C@@H](C4CC4)C(F)(F)F)cn(-c4c(F)cc(F)cc4F)c3n2)C(=O)O1` [Example 669, Methyl (5R)-3-[6-{[(1S)-1-cyclopropyl-2,2,2-trifluoroethyl]carbamoyl}-5-oxo-8-(2,4,6-trifluorophenyl)-5,8-dihydro-1,8-naphthyridin-2-yl]-2-oxo-1,3-oxazolidine-5-carboxylate] the EC50 [2, 5] was 106 nM and the Emax ([2]; M2-GIRK1/4 reporter cells) was 84.9%.
Work on `O=C(N[C@@H](C1CC1)C(F)(F)F)c1cn(-c2c(F)cc(F)cc2F)c2nc(N3C[C@H](C(=O)O)OC3=O)ccc2c1=O` [Example 670, (5R)-3-[6-{[(1S)-1-Cyclopropyl-2,2,2-trifluoroethyl]carbamoyl}-5-oxo-8-(2,4,6-trifluorophenyl)-5,8-dihydro-1,8-naphthyridin-2-yl]-2-oxo-1,3-oxazolidine-5-carboxylic acid] yielded an EC50 [2, 5] of 1450 nM and an Emax ([2]; M2-GIRK1/4 reporter cells) of 66.5%.
In the case of `NC(=O)[C@H]1CN(c2ccc3c(=O)c(C(=O)N[C@@H](C4CC4)C(F)(F)F)cn(-c4c(F)cc(F)cc4F)c3n2)C(=O)O1` [Example 671, 7-[(5R)-5-Carbamoyl-2-oxo-1,3-oxazolidin-3-yl]-N-[(15)-1-cyclopropyl-2,2,2-trifluoroethyl]-4-oxo-1-(2,4,6-trifluorophenyl)-1,4-dihydro-1,8-naphthyridine-3-carboxamide], the EC50 [2, 5] is reported as 100 nM and the Emax ([2]; M2-GIRK1/4 reporter cells) is reported as 94%.
For `CC(C)Nc1ccc2c(=O)c(C(=O)NC34CCC(CC3)CC4)cn(-c3ccc(F)cc3F)c2n1` [compound 159], the EC50 [2, 4] was 117 nM.
In the case of `O=C(NCc1c(Cl)cccc1Cl)c1cn(-c2ccc(F)cc2F)c2nc(N3CC(O)CC3=O)ccc2c1=O` (centres unmarked) [compound 183], the EC50 [2, 4] is reported as 166 nM.
Work on `CC(C)(NC(=O)c1cn(-c2ccc(F)cc2F)c2nc(N3CCCS3(=O)=O)ccc2c1=O)c1c(F)cccc1F` [compound 185] yielded an EC50 [2, 4] of 156 nM.
